Values quoted from earlier work in patent US4196187A, “Rumen-stable pellets” (Eastman Kodak Company, priority 1977, dated 1980).

Tests used:
[1] = Example 1

Solubility g./100 g. water at 25° C. [g./100 g. water]	soluble to the extent of (25° C., water)	acidity of a saturated solution (pH) [1]	Structure (SMILES)
4.0	–	–	CSCCC(N)C(=O)O (racemic) [DL - Methionone]
–	about 70 g./100 g. of water	5.5	Cl.NCCCC[C@H](N)C(=O)O [L-Lysine monohydrochloride]
